# Assays:
# Test in all cases: MIC by microbroth dilution
# [1] = test system: Staphylococcus aureus L165; assay type: cell-based; details: 0,01% BSA, inoculum 10^4 CFU/ml, read after 18-24 h, Iso-Sensitest broth
# Description: (§1) The minimal inhibitory concentration (MIC) has been determined by microbroth dilution methodology, in the presence of 0,01% (w/v) of bovine serum albumin (BSA). BSA is added to the diluent to avoid possible adherence of the compounds of the invention to the plastic surface of the microtiter wells, as disclosed also by B. Goldstein et al., Antimicrobial Agents and Chemotherapy, 37 (1993), 741-745.
# (§2) Inocula were 10^4 CFU/ml, except for Propionibacterium acnes and Bacteroides fragilis (10^5 CFU/ml) MICs were read after 18-24 h, except for Haemophilus influenzae, P. acnes, B. fragilis (48 h).
# (§3) All microorganisms were incubated at 37° C.; H. influenzae in a 5% CO2 atmosphere, anaerobes in a N2 --CO2 --H2 (80:10:10) mixture; other organisms in air.
# (§4) The growth media are: Oxoid Iso-Sensitest broth for staphylococci and Enterococcus faecalis); Difco Todd Hewitt broth for streptococci; Difco brain heart infusion broth+1% Difco Supplement C. for H. influenzae; Difco Wilkins-Chalgren broth for anaerobes.
# [2] = test system: Streptococcus pyogenes L49; assay type: cell-based; details: 0,01% BSA, 10^4 CFU/ml, 18-24 h, Todd Hewitt broth
# Description: as §1, §2, §3, §4
# [3] = test system: Strept. pneumoniae L44; assay type: cell-based, Streptococcus pneumoniae; details: 0,01% BSA, 10^4 CFU/ml, 18-24 h, Todd Hewitt broth
# Description: as §1, §2, §3, §4
# [4] = test system: Strept. sanguis L1721; assay type: cell-based, Streptococcus sanguis; details: 0,01% BSA, 10^4 CFU/ml, 18-24 h, Todd Hewitt broth
# Description: as §1, §2, §3, §4
# [5] = test system: Strept. agalactiae L310; assay type: cell-based, Streptococcus agalactiae; details: 0,01% BSA, 10^4 CFU/ml, 18-24 h, Todd Hewitt broth
# Description: as §1, §2, §3, §4
# [6] = test system: Haemoph. influenzae ATCC 19418 L970; assay type: cell-based, Haemophilus influenzae; details: 0,01% BSA, 10^4 CFU/ml, 48 h, 5% CO2, brain heart infusion broth+1% Supplement C
# Description: as §1, §2, §3, §4
# [7] = test system: Bacteroides fragilis ATCC 25285 L1011; assay type: cell-based; details: 0,01% BSA, 10^5 CFU/ml, 48 h, anaerobic, Wilkins-Chalgren broth
# Description: as §1, §2, §3, §4
# [8] = test system: Staph. epidermidis ATCC 12228 L147; assay type: cell-based, Staphylococcus epidermidis; details: 0,01% BSA, 10^4 CFU/ml, 18-24 h, Iso-Sensitest broth
# Description: as §1, §2, §3, §4
# [9] = test system: Staph. haemolyticus L602; assay type: cell-based, Staphylococcus haemolyticus; details: 0,01% BSA, 10^4 CFU/ml, 18-24 h, Iso-Sensitest broth
# Description: as §1, §2, §3, §4
# [10] = test system: Propionibact. acnes ATCC 6919 L1014; assay type: cell-based, Propionibacterium acnes; details: 0,01% BSA, 10^5 CFU/ml, 48 h, anaerobic, Wilkins-Chalgren broth
# Description: as §1, §2, §3, §4
Structure (SMILES),MIC of the compounds [1] [µg/mL],MIC of the compounds [2] [µg/mL],MIC of the compounds [3] [µg/mL],MIC of the compounds [4] [µg/mL],MIC of the compounds [5] [µg/mL],MIC of the compounds [6] [µg/mL],MIC of the compounds [7] [µg/mL],MIC of the compounds [8] [µg/mL],MIC of the compounds [9] [µg/mL],MIC of the compounds [10] [µg/mL]
CNC(=O)CC1NC(=O)c2csc(n2)-c2ccc(-c3nc(C4=NC(C(=O)N(C)CCN(C)CCN(C)C)CO4)cs3)nc2-c2csc(n2)-c2csc(n2)C(C(O)c2ccccc2)NC(=O)CNC(=O)c2nc(sc2COC)C(C(C)C)NC(=O)c2nc1sc2C (mixture of isomers) [Compound 16],0.06,2,0.25,0.25,8,,,,,
CNC(=O)CC1NC(=O)c2csc(n2)-c2ccc(-c3nc(C4=NC(C(=O)N5CC(C)NC(C)C5)CO4)cs3)nc2-c2csc(n2)-c2csc(n2)C(C(O)c2ccccc2)NC(=O)CNC(=O)c2nc(sc2COC)C(C(C)C)NC(=O)c2nc1sc2C (mixture of isomers) [Compound 12],0.06,2,0.5,0.5,4,,,,,
CNC(=O)CC1NC(=O)c2csc(n2)-c2ccc(-c3nc(C4=NC(C(=O)N5CCN(CCCN(C)C)CC5)CO4)cs3)nc2-c2csc(n2)-c2csc(n2)C(C(O)c2ccccc2)NC(=O)CNC(=O)c2nc(sc2COC)C(C(C)C)NC(=O)c2nc1sc2C (mixture of isomers) [Compound 17],0.06,2,0.5,0.5,8,,,,,
CNC(=O)CC1NC(=O)c2csc(n2)-c2ccc(-c3nc(C4=NC(C(=O)NCCN5CCCC5)CO4)cs3)nc2-c2csc(n2)-c2csc(n2)C(C(O)c2ccccc2)NC(=O)CNC(=O)c2nc(sc2COC)C(C(C)C)NC(=O)c2nc1sc2C (mixture of isomers) [Compound 2],0.06,1,0.25,0.5,4,128,,,,
CNC(=O)CC1NC(=O)c2csc(n2)-c2ccc(-c3nc(C4=NC(C(=O)N5CCN(C)CC5)CO4)cs3)nc2-c2csc(n2)-c2csc(n2)C(C(O)c2ccccc2)NC(=O)CNC(=O)c2nc(sc2COC)C(C(C)C)NC(=O)c2nc1sc2C (mixture of isomers) [Compound 6],0.06,4,0.25,0.25,4,,128,,,
CCN(CCN(C)C)C(=O)C1COC(c2csc(-c3ccc4c(n3)-c3csc(n3)-c3csc(n3)C(C(O)c3ccccc3)NC(=O)CNC(=O)c3nc(sc3COC)C(C(C)C)NC(=O)c3nc(sc3C)C(CC(=O)NC)NC(=O)c3csc-4n3)n2)=N1 (mixture of isomers) [Compound 8],0.06,8,0.5,1,4,,,,,
CNC(=O)CC1NC(=O)c2csc(n2)-c2ccc(-c3nc(C4=NC(C(=O)N(C)CCN(C)C)CO4)cs3)nc2-c2csc(n2)-c2csc(n2)C(C(O)c2ccccc2)NC(=O)CNC(=O)c2nc(sc2COC)C(C(C)C)NC(=O)c2nc1sc2C (mixture of isomers) [Compound 4],0.06,0.5,0.13,0.13,0.5,4,8,0.06,0.06,0.016
CNC(=O)CC1NC(=O)c2csc(n2)-c2ccc(-c3nc(C4=NC(C(=O)N5CCC(N(C)C)CC5)CO4)cs3)nc2-c2csc(n2)-c2csc(n2)C(C(O)c2ccccc2)NC(=O)CNC(=O)c2nc(sc2COC)C(C(C)C)NC(=O)c2nc1sc2C (mixture of isomers) [Compound 10],0.06,2,0.25,0.5,4,,,,,
CNC(=O)CC1NC(=O)c2csc(n2)-c2ccc(-c3nc(C4=NC(C(=O)NC(C)C(=O)N(C)CCN(C)C)CO4)cs3)nc2-c2csc(n2)-c2csc(n2)C(C(O)c2ccccc2)NC(=O)CNC(=O)c2nc(sc2COC)C(C(C)C)NC(=O)c2nc1sc2C (mixture of isomers) [Compound 15],0.06,4,0.25,0.5,4,,,,,
CNC(=O)CC1NC(=O)c2csc(n2)-c2ccc(-c3nc(C4=NC(C(=O)NCCCN(C)C)CO4)cs3)nc2-c2csc(n2)-c2csc(n2)C(C(O)c2ccccc2)NC(=O)CNC(=O)c2nc(sc2COC)C(C(C)C)NC(=O)c2nc1sc2C (mixture of isomers) [Compound 5],0.06,1,0.25,0.25,2,,32,,,
CNC(=O)CC1NC(=O)c2csc(n2)-c2ccc(-c3nc(C4=NC(C(=O)N(C)CC(=O)N(C)CCN(C)C)CO4)cs3)nc2-c2csc(n2)-c2csc(n2)C(C(O)c2ccccc2)NC(=O)CNC(=O)c2nc(sc2COC)C(C(C)C)NC(=O)c2nc1sc2C (mixture of isomers) [Compound 14],0.06,2,0.25,0.25,4,,,,,
CCN1CCCC1CNC(=O)C1COC(c2csc(-c3ccc4c(n3)-c3csc(n3)-c3csc(n3)C(C(O)c3ccccc3)NC(=O)CNC(=O)c3nc(sc3COC)C(C(C)C)NC(=O)c3nc(sc3C)C(CC(=O)NC)NC(=O)c3csc-4n3)n2)=N1 (mixture of isomers) [Compound 1],0.06,2,0.25,0.5,2,128,,,,
CNC(=O)CC1NC(=O)c2csc(n2)-c2ccc(-c3nc(C4=NC(C(=O)NCCN(C(C)C)C(C)C)CO4)cs3)nc2-c2csc(n2)-c2csc(n2)C(C(O)c2ccccc2)NC(=O)CNC(=O)c2nc(sc2COC)C(C(C)C)NC(=O)c2nc1sc2C (mixture of isomers) [Compound 11],0.13,8,2,4,> 128,,,,,
CCN(CC)CCNC(=O)C1COC(c2csc(-c3ccc4c(n3)-c3csc(n3)-c3csc(n3)C(C(O)c3ccccc3)NC(=O)CNC(=O)c3nc(sc3COC)C(C(C)C)NC(=O)c3nc(sc3C)C(CC(=O)NC)NC(=O)c3csc-4n3)n2)=N1 (mixture of isomers) [Compound 3],0.06,2,0.5,0.5,4,128,,,,
CNC(=O)CC1NC(=O)c2csc(n2)-c2ccc(-c3nc(C4=NC(C(=O)N5CCCC5CN(C)CCN(C)C)CO4)cs3)nc2-c2csc(n2)-c2csc(n2)C(C(O)c2ccccc2)NC(=O)CNC(=O)c2nc(sc2COC)C(C(C)C)NC(=O)c2nc1sc2C (mixture of isomers) [Compound 21],0.06,1,0.25,0.25,4,,,,,
CCN(CC)CCN(CC)C(=O)C1COC(c2csc(-c3ccc4c(n3)-c3csc(n3)-c3csc(n3)C(C(O)c3ccccc3)NC(=O)CNC(=O)c3nc(sc3COC)C(C(C)C)NC(=O)c3nc(sc3C)C(CC(=O)NC)NC(=O)c3csc-4n3)n2)=N1 (mixture of isomers) [Compound 9],0.06,2,0.5,1,32,,,,,
CNC(=O)CC1NC(=O)c2csc(n2)-c2ccc(-c3nc(C4=NC(C(=O)NCCN(C)C)CO4)cs3)nc2-c2csc(n2)-c2csc(n2)C(C(O)c2ccccc2)NC(=O)CNC(=O)c2nc(sc2COC)C(C(C)C)NC(=O)c2nc1sc2C (mixture of isomers) [Compound 7],0.13,4,1,1,8,,,,,

# Reference: patent US5891869A, “Basic oxazoline-amide derivatives of GE2270 and GE2270-like antibiotics” (Biosearch Italia, S.p.A., priority 1995, dated 1999)
